# According to publication PMC4404333, “Identification of Selective Inhibitors of the Plasmodium falciparum Hexose Transporter PfHT by Screening Focused Libraries of Anti-Malarial Compounds” (PLoS ONE, 2015):
# Legend:
# [1] = test system: P. falciparum strain 3D7 intraerythrocytic forms; set-up: method as in PubChem web site, http://pubchem.ncbi.nlm.nih.gov/; details: reported values; ref PubChem web site, http://pubchem.ncbi.nlm.nih.gov/; read-out: EC50 3D7 In vitro; cited from earlier work
# [2] = Parallel artificial membrane permeability assay (PAMPA); details: for Permeation: pH 7.4; for Retention: retention in artificial membrane
# Method: A parallel artificial membrane permeability assay (PAMPA) was conducted on a Biomek FX lab automation workstation (Beckman Coulter, Inc.) with PAMPA evolution 96 command software (pION Inc.) as follows: 3 μL of 10 mM test compound stock was mixed with 600 μL of PBS (pH 7.4) to make diluted test compound. Then 150 μL of diluted test compound was transferred to a UV plate (pION Inc.), and the UV spectrum was read as the reference plate. The membrane on a preloaded PAMPA sandwich (pION Inc.) was painted with 4 μL of GIT lipid (pION Inc.). The acceptor chamber was then filled with 200 μL of acceptor solution buffer (pION Inc.), and the donor chamber was filled with 180 μL of diluted test compound. The PAMPA sandwich was assembled, placed on the Gut-Box controlled environment chamber and stirred for 30 min. The aqueous boundary layer was set to 40 μm for stirring. The UV spectrum (250–500 nm) of the donor and the acceptor were read. The permeability coefficient was calculated using PAMPA Evolution 96 Command software (pION Inc.) based on the AUC of the reference plate, the donor plate, and the acceptor plate. All compounds were tested in triplicate.
# [3] = test system: BJ cell line (human foreskin fibroblasts); experiment: Mammalian cell drug susceptibility assay (Cell Titer Glo, 72 h); type: cell-based
# Method: The BJ cell line (human foreskin fibroblasts), which express GLUT1 [26], was purchased from the ATTC and cultured according to recommendations. 1000 exponentially growing cells were plated per well (25 μL) in white polystyrene flat bottom sterile 384-well tissue culture treated plates (Corning), and incubated overnight at 37°C in a humidified 5% CO2 incubator. DMSO inhibitor stock solutions were pin-transferred (V&P Scientific) the following day. Plates were placed back in the incubator for 72 h incubation and equilibrated at room temperature for 20 min before addition of 25 μL Cell Titer Glo (Promega) to each well. Plates were shaken on an orbital shaker for 2 min at 500 rpm. Luminescence was read after 15 min on an Envision plate reader (Perkin Elmer). EC50 values were calculated with a custom program (RISE, Robust Investigation of Screening Experiments) using a four-parameter logistic equation.
# [4] = Liver microsomes stability assay; type: in vitro ADME, mouse; details: both sexes, CD-1, pH 7.4; for CLint scaled at 9.8 μM: intrinsic clearance calculated from in vitro t1/2, mouse liver microsomes; for half-life at 9.8 μM: mouse liver microsomes, read-out: Mouse Metabolic Stability t1/2 (converted)
# Method: The microsomal stability assay was carried out as described. […] Each test compound (2.2 μL of 10 mM DMSO solution) was added directly to 1.79 mL of mouse liver microsomal solution and 90 μL was transferred to wells in 96-well plates (0, 0.25, 0.5, 1, 2, and 4 h time points each in triplicate). The NADPH regenerating agent was prepared by mixing 0.113 mL of NADPH regenerating agent solutions A, 0.023 mL of solution B and 0.315 mL of 0.1 M potassium phosphate buffer (pH 7.4) for each tested compound. To each well of the 96-well plate, 22.5 μL of the NADPH regenerating agent was added to initiate the reaction, and the plate was incubated at 37°C for each time point (0, 0.25, 0.5, 1, 2, and 4 h time points each in triplicate). The reaction was quenched by adding 225 μL of cold acetonitrile containing warfarin (4 μg/mL) as internal control to each well. All of the plates were centrifuged at 3220 g for 20 min and the supernatants (100 μL) were transferred to another 96-well plate for analysis on UPLC—MS (Waters Acquity UPLC linked to Waters Acquity Photodiode Array Detector and Waters Acquity Single Quadrupole Mass Detector) on an Acquity UPLC BEH C18 1.7 μm (2.1x50 mm) column by running 90–5% gradient for water (0.1% formic acid) and acetonitrile (0.1% formic acid) in 2 minutes. The area under the single ion recording (SIR) channel for the test compound divided by the area under the SIR for internal control at 0 time concentration was considered as 100% to calculate remaining concentration at each time point. The terminal phase rate constant (ke) was estimated by linear regression of logarithmic transformed concentration versus time, where ke = slope x(-ln10). The half-life t1/2 was calculated as ln2/ke.
Compound,EC50 [1],Permeation [2],Retention [2],EC50 [3],CLint scaled at 9.8 μM [4],half-life at 9.8 μM [4]
COc1cc(Nc2ccc3cc(S(=O)(=O)N4CCCCC4C)ccc3n2)cc(OC)c1OC (stereo not drawn) [Compound 1],1.24 µM,1057 ± 69 10^-6 cm/s,70 ± 2.0%,> 23 µM,12.8 L/h/kg,16.2 min
CC1CCCCN1S(=O)(=O)c1ccc2nc(Nc3ccccc3)ccc2c1 (stereo not drawn) [Compound 10],,534 ± 25 10^-6 cm/s,80 ± 12%,> 25 µM,26.3 L/h/kg,7.8 min
CC1CCCCN1S(=O)(=O)c1ccc2nc(Nc3ccc(C#N)cc3)ccc2c1 (stereo not drawn) [Compound 12],,570 ND 10^-6 cm/s,93 ± 3.8%,> 26 µM,10.7 L/h/kg,19.2 min
CC1CCCCN1S(=O)(=O)c1ccc2nc(Nc3cccc(C#N)c3)ccc2c1 (stereo not drawn) [Compound 13],,582 ± 205 10^-6 cm/s,93 ± 0.5%,> 25 µM,40.8 L/h/kg,4.8 min
